Where two headings read alike, the source gives them in different places.
Assays:
ER α = molecular target: T1, ER α (Homo sapiens, UniProt P03372); experiment: Affinity ultrafiltration LC-MS screening (AUF-LC-MS) of Arnebiae Radix extract against ER α; conditions: specific binding = Aa/Ab (relative peak area active group / denatured group), extract 5.0 mg/ml, ER α 200 µg/ml, 37°C 60 min, <1.5 = non-ligand
T1 construct: purchased Shanghai Tongwei Biotechnology Co., Ltd. (China)
T1 sequence (P03372 1-595): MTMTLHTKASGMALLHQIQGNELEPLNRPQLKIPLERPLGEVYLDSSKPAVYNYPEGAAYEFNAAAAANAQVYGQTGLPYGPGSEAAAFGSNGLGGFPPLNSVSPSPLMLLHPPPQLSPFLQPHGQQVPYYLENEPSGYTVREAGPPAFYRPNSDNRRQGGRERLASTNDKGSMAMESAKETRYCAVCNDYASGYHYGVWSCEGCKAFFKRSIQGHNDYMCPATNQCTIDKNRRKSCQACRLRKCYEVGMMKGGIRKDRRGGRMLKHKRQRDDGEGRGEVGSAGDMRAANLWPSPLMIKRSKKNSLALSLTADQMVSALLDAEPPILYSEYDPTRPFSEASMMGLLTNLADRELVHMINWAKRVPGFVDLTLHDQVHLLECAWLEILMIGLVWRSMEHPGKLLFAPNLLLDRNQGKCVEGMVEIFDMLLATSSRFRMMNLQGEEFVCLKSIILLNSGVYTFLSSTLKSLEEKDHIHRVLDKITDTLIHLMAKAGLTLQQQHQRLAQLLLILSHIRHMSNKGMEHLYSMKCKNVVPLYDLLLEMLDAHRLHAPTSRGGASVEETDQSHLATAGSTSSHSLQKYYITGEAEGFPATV
Procedure: (§1) The above extract was dissolved in DMSO, and the solution was diluted with buffer (pH = 8.0) to a final concentration of 5.0 mg/ml. The sample solution and buffer were successively added to EP tubes. Then buffer, inactivated ER α solution (200 µg/ml, boiled in the water bath for 20 min), and ER α solution (200 µg/ml) were separately added as the blank control group, the denatured control group, and the sample group, respectively. The blank control group and denatured control group were set to exclude some interference factors about background, false positives, and non-specific binding. The group of mixtures was subsequently incubated in the dark at 37°C for 60 min to make a combination balance. Next, each mixture (200 μl) was transferred into an ultrafiltration tube and ultrafiltered at 12,000 rpm for 15 min at 4°C. Then, each group was washed three times with 300 μl of buffer to remove unbound small molecules. Finally, the ligands bound to ER α were dissociated from the complexes by incubating with 300 μl of methanol/water (90/10) for 10 min and then centrifuging at 12,000 rpm for 15 min at room temperature, three times. These ultrafiltrates for each group were dried under nitrogen gas at room temperature and reconstituted in 80 μl of methanol/water (50/50) prior to UHPLC-Q-Exactive Orbitrap MS analysis. All the screening assays were carried out in triplicate. Except for the replacement of the ER, the affinity ultrafiltration screening method of ER β is similar to that of ER α in the other steps.
The analyses are exercised on Q-Exactive Focus Orbitrap MS connected to Thermo Scientific Dionex Ultimate 3000 RS through an ESI source. […] The 0.1% formic acid and acetonitrile were used as the mobile phases A and B, respectively. […] For the MS/MS analysis, the mass spectrometer equipped with an electrospray ionization source was obtained with a resolution of 70,000 detected by the Orbitrap analyzer. In order to comprehensively explore compounds, the positive and negative ion modes were both selected. The mass spectrometry conditions are as follows: electrospray ion source, the spray voltage was 3.5 kV for positive ion mode and 3.2 kV for negative ion mode, sheath gas pressure was 35 arb, auxiliary gas pressure was 10 arb, and the temperature of capillary and auxiliary gas heater was 320°C and 350°C, respectively; and the S-lens RF level was 60. Full-scan data were acquired from m/z 100–1,200 by data-dependent MS^2 scanning or parallel reaction monitoring (PRM) mode. The nitrogen gas served as collision gas, and the energy was set as normalized collision energy 30%. Instrument and data were controlled by the Xcalibur software version 4.2.
Therefore, affinity ultrafiltration can rapidly screen and identify bioactive compounds in complex plant extracts by comparing the changes in peak areas before and after ultrafiltration.

ER β [1] = molecular target: T2, ER β (Homo sapiens, UniProt Q92731); experiment: Affinity ultrafiltration LC-MS screening (AUF-LC-MS) of Arnebiae Radix extract against ER β; conditions: specific binding = Aa/Ab (relative peak area active group / denatured group), extract 5.0 mg/ml, ER β 200 µg/ml, 37°C 60 min, <1.5 = non-ligand
T2 construct: purchased Shanghai Tongwei Biotechnology Co., Ltd. (China)
T2 sequence (Q92731 whole entry): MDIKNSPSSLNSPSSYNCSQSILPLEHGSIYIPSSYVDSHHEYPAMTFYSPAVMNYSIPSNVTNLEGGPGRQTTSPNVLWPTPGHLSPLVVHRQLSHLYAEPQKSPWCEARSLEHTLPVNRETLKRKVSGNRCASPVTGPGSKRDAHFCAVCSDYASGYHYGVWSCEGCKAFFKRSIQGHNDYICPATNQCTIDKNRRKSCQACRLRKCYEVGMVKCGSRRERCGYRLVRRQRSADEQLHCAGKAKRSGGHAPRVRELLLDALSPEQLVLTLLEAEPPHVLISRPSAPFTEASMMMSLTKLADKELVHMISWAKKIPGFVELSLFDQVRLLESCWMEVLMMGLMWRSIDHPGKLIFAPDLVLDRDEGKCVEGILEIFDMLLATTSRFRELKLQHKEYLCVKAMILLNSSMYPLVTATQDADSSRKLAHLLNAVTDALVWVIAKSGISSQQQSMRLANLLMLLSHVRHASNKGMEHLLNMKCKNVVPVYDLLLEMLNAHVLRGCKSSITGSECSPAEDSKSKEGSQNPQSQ
Procedure: as §1
The analyses are exercised on Q-Exactive Focus Orbitrap MS connected to Thermo Scientific Dionex Ultimate 3000 RS through an ESI source. For the chromatographic separation, a Thermo Scientific Hypersil GOLD™ aQ (100 mm × 2.1 mm, 1.9 μm) was applied at the flow rate of 0.3 ml/min. The 0.1% formic acid and acetonitrile were used as the mobile phases A and B, respectively. The optimized UHPLC elution procedures were conducted as follows: 0–2 min, 95%–90% A; 2–5 min, 90%–80% A; 5–10 min, 80%–75% A; 10–15 min, 75%–50% A; 15–25 min, 50%–45% A; 25–40 min, 45%–20% A; 40–45 min, 20%–5% A; 45–45.1 min, 5%–95% A; 45–50 min, 95% A. The column temperature was maintained at 35°C. For the MS/MS analysis, the mass spectrometer equipped with an electrospray ionization source was obtained with a resolution of 70,000 detected by the Orbitrap analyzer. In order to comprehensively explore compounds, the positive and negative ion modes were both selected. The mass spectrometry conditions are as follows: electrospray ion source, the spray voltage was 3.5 kV for positive ion mode and 3.2 kV for negative ion mode, sheath gas pressure was 35 arb, auxiliary gas pressure was 10 arb, and the temperature of capillary and auxiliary gas heater was 320°C and 350°C, respectively; and the S-lens RF level was 60. Full-scan data were acquired from m/z 100–1,200 by data-dependent MS^2 scanning or parallel reaction monitoring (PRM) mode. The nitrogen gas served as collision gas, and the energy was set as normalized collision energy 30%. Instrument and data were controlled by the Xcalibur software version 4.2.
Therefore, affinity ultrafiltration can rapidly screen and identify bioactive compounds in complex plant extracts by comparing the changes in peak areas before and after ultrafiltration. […] According to literature reports ([Munigunti et al., 2011]), compounds whose specific binding values were less than 1.5 were considered as non-ligands.

ER β [2] = molecular target: T2, ER β; experiment: SPR binding measurements (Biacore T200) on immobilized ER β; conditions: for kon: read-out: Ka (association rate constant); for koff: read-out: Kd (dissociation rate constant)
Procedure: SPR binding measurements were performed using a Biacore T200 biosensor system (Cytiva, USA). All the SPR-based materials were acquired from Cytiva.
ER β was dissolved in PBS at 1.0 mg/ml and was then diluted in 20 μg/ml sodium acetate buffer at pH 5.0 and immobilized on a CM5 chip using an amine coupling kit. Sulfo-NHS (0.1 mol/l) and EDC (0.4 mol/l) with a 1:1 volume ratio were mixed at 25°C and flowed through a chip channel at 10 μl/min. ERβ was flowed through the chip channel at the same flow rate and reacted with the activated carboxyl groups on the chip for 600 s. Ethanolamine hydrochloride flowed through the chip channel at the same flow rate for 360 s.
Sensor preparation and interaction analyses were performed at 25°C in the PBS running buffer. Each analyte was dissolved in DMSO at 1 mg/ml and then dissolved in the running buffer at 0.20, 0.39, 0.78, 1.56, 3.13, 6.25, 12.5, and 25 μg/ml for SPR measurements.
The running buffer was used as the blank control. Eight groups of gradient concentrations of the same analyte (and the blank control) were flowed through the immobilized channel at a flow rate of 30 μl/min, with an association time of 180s and a dissociation time of 300 s. The collected signals were monitored in real time, and a reference flow cell without immobilized ER β served as a non-specific binding control. The rate constants of association and dissociation were calculated by the non-linear fitting method including the simultaneous fitting for the association and dissociation phases in each sensorgram in Biacore Evaluation Software version 3.2.1 (Cytiva, USA).

thrombin = molecular target: thrombin; design: method as in Wang et al., 2017; conditions: SPR, direct interaction with thrombin; ref Wang et al., 2017; cited from earlier work
[3] = SPR, ER β on CM5 chip, 25°C, PBS running buffer, read-out: KD
[4] = SPR, ER β on CM5 chip, 25°C, PBS running buffer

| Structure (SMILES) | Specific binding (ER α) | Specific binding (ER β [1]) | Rmax (ER β [2]; SPR, ER β on CM5 chip, 25°C) [RU] | Kd (ER β [2]; [3]) [nM] | other results |
| --- | --- | --- | --- | --- | --- |
| COc1ccc(C2COc3cc(O)ccc3C2)c(OC)c1 (stereo not shown) [Sativan] | 2.15 |  |  |  |  |
| O=C(O)CCCCC(=O)O [Adipic acid] | 5.77 |  |  |  |  |
| CC(C)=CCCC1=CC(=O)c2c(O)ccc(O)c2C1=O [Deoxyshikonin] | 2.28 |  |  |  |  |
| O=C(O)CC(O)C(=O)O (stereo not shown) [Malic acid] |  | 2.20 |  |  |  |
| O=C(O)CC(O)(CC(=O)O)C(=O)O [Citric acid] | 5.02 | 1.78 |  |  |  |
| CCCC[C@H](N)C(=O)O [Norleucine] |  | 2.29 |  |  |  |
| O=c1c(O)c(-c2ccc(O)c(O)c2)oc2cc(O)cc(O)c12 [Quercetin] |  | 1.54 | 13.28 | 1260 | kon (ER β [2]): 2950 M⁻¹ s⁻¹; koff (ER β [2]): 0.00372 s⁻¹ |
| O=C(/C=C/c1ccc(O)c2oc(-c3ccc(O)c(O)c3)cc12)O[C@H](Cc1ccc(O)c(O)c1)C(=O)O [Salvianolic acid C] |  | 1.75 | 12.6 | 1980 | kon (ER β [2]; [4]): 1390 M⁻¹ s⁻¹; koff (ER β [2]; [4]): 0.00276 s⁻¹ |
| O=C(/C=C/c1ccc(O)c(O)c1)O[C@H](Cc1ccc(O)c(O)c1)C(=O)O [Rosmarinic acid] |  | 2.66 | 4.41 | 1320 | kon (ER β [2]; [4]): 2020 M⁻¹ s⁻¹; koff (ER β [2]; [4]): 0.00266 s⁻¹ |
| C[C@@H]1O[C@@H](OC[C@H]2O[C@@H](Oc3c(-c4ccc(O)c(O)c4)oc4cc(O)cc(O)c4c3=O)[C@H](O)[C@@H](O)[C@@H]2O)[C@H](O)[C@H](O)[C@H]1O [Rutin] |  |  | 7.78 | 934 |  |
| O=c1c(O[C@@H]2O[C@H](CO)[C@@H](O)[C@H](O)[C@H]2O)c(-c2ccc(O)c(O)c2)oc2cc(O)cc(O)c12 [Isoquercitrin] |  | 1.91 | 9.57 | 1040 | kon (ER β [2]; [4]): 3020 M⁻¹ s⁻¹; koff (ER β [2]; [4]): 0.00314 s⁻¹ |
| COc1ccc2cc3[n+](cc2c1OC)CCc1cc2c(cc1-3)OCO2 [berberine] |  |  |  |  | Kd (thrombin): 16400 nM |
| O=C(/C=C/c1ccc(O)c2c1[C@H](C(=O)O[C@H](Cc1ccc(O)c(O)c1)C(=O)O)[C@@H](c1ccc(O)c(O)c1)O2)O[C@H](Cc1ccc(O)c(O)c1)C(=O)O [Salvianolic acid B] |  | 2.24 | 3.51 |  | Kd (ER β [2]): 2320 nM; kon (ER β [2]; [4]): 788 M⁻¹ s⁻¹; koff (ER β [2]; [4]): 0.00183 s⁻¹ |
| N[C@@H](Cc1ccccc1)C(=O)O [Phenylalanine] | 6.36 | 2.39 |  |  |  |
